Laboratory results from patent US6048894A, “Substituted amide derivatives” (Banyu Pharmaceutical Co., Ltd., priority 1996, dated 2000).

Target: T1, protein-farnesyl transferase (PFT) (Rattus norvegicus, UniProt Q02293+Q04631)
T1 construct: a soluble fraction of rat's brain was fractionated; from tissue; host or cells: rat brain, soluble fraction, 30-50% ammonium sulfate cut, Q-Sepharose chromatography
Test: Inhibitory activities against protein-farnesyl transferase (PFT), IC50
Format: biochemical
Details: PFT from rat brain (Q-sepharose fraction); prenyl acceptor H-ras protein or biotin-added Lys-Thr-Ser-Cys-Val-Ile-Met (not stated which for Table 1); [3H]-FPP 0.6 μM; 37° C., 20 min; read-out: 50% inhibitory concentrations against PFT activities, IC50
Procedure: PFT was separated in such a manner that a soluble fraction of rat's brain was fractionated by means of 30%-50% saturated ammonium sulfate, further dialyzed and then subjected to column chromatography by Q-sepharose™ (manufactured by Pharmacia) (Reiss et al., Cell, vol. 62, pp. 81-88 (1990)).
Measurement of PFT activities was conducted by using, as a prenyl acceptor, H-ras protein or a peptide corresponding to the C-terminal 7 amino acid residues of K-rasB protein which had biotin added to the N-terminal (biotin-added Lys-Thr-Ser-Cys-Val-Ile-Met) and, as a prenyl donor, [^3 H]-labeled farnesyl pyrophosphate (FPP) (Reiss et al., Methods: A companion to Methods in Enzymology, vol. 1, No. 3, pp. 241-245 (1990)).
The [^3 H]-labeled farnesyl pyrophosphate (22.5 Ci/mmol) was purchased from New England Nuclear Co. Non-labeled farnesyl pyrophosphate was chemically synthesized from ditrethylammonium phosphate, trans-trans-farnesol and trichloroacetonitrile and purified by a XAD-2-resin column and diethylaminoethylcellulose (Cornforth et al., Methods in Enzymology, vol. 15, pp. 385-390 (1969)). […]
The enzymatic reaction product containing H-ras protein as the prenyl acceptor, was analyzed by SDS-PAGE (sodium dodecyl sulfate/polyacrylamide gel electrophoresis). […]
The measurement of PFT activities using H-ras protein as the prenyl receptor, was also analyzed by a rapid separate method. […]

| SMILES | IC50 [nM] |
| --- | --- |
| CCOC(=O)C(CC(=O)O)=C(O)C(=O)N(Cc1ccc2ccccc2c1)[C@H](C)[C@@H](Cc1ccc(C(=O)Nc2ccccc2)o1)C(=O)OC(C)C (racemic) [Example 2, 3-(ethoxycarbonyl)-4-hydroxy-4-[N-[(1RS,2RS)-2-(isopropoxycarbonyl)-1-methyl-3-{5-(phenylcarbamoyl)-2-furyl}propyl]-N-(2-naphthylmethyl)carbamoyl]-3-butenoic acid] | 3.1 |
| CCOC(=O)/C=C/[C@@H](Cc1ccc(C(=O)Nc2ccccc2)o1)[C@@H](C)N(Cc1ccc2ccccc2c1)C(=O)C(O)=C(CC(=O)O)C(=O)OCC (relative stereo) [Example 4] | 7.8 |
